Data from US6020342A, “Fused imidazo[1,2-A]pyridines” (Shinnippon Pharmaceutical, Inc., priority 1995, dated 2000).

Experiments:
[1] = test system: ethanol-induced gastric lesion; assay: Inhibition of Ethanol-induced Gastric Lesion (Protection of gastric mucosa); type: in vivo, male Wister rats; conditions: Rattus norvegicus, po, 1 h; 30 mg/kg orally, rats, ethanol 0.5 ml/100 g
Experimental: Inhibition of Ethanol-induced Gastric Lesion (Protection of gastric mucosa)
Male Wister rats (6-7weeks, 5 rats per group) fasted for 24 hours were used (water ad libitum). Test compound (30 mg/kg) suspended in 0.5% aqueous CMC-Na solution was orally administered. In the control group, only 0.5% aqueous CMC-Na solution was administered. Thirty minutes after administration, 0.5 ml/100 g body weight of ethanol was orally administered to cause gastric lesion. After one hour, the rat was killed by excessive amount of ether, and the stomach was removed and fixed with 2% formalin. After fixation, the stomach was dissected along the large curvature. The size of each of mucosal lesions was measured under dissecting microscope, and the total size of the lesions per rat was determined and used as ulcer index (mm). Inhibition of gastric lesion was determined by comparing the ulcer index in the control group and test group.

[2] = set-up: species or system male ICR mice; conditions: mouse, in vivo, po, 10080 min
Experimental: Male ICR mice (6 weeks, 3 mice per group) fasted for 16 hours were used ad libitum). A test compound suspended in 5% aqueous gum arabic solution was orally administered. After administration, mortality of the animals observed during 7 days and approximate lethal dose was determined.

[3] = target: T1, H^+ /K^+ -ATPase (Sus scrofa, UniProt P19156); assay: Inhibitory Action on H^+ /K^+ -ATPase Activity; type: biochemical; conditions: microsome fraction from porcine gastric mucosa, pH7.4, 37° C., 30 min preincubation, 15 min reaction
T1 construct: a microsome fraction prepared from porcine gastric mucosa was used as a standard enzyme; from tissue; host or cells: porcine gastric mucosa, microsome fraction
T1 sequence (P19156 2-1034 limits assumed): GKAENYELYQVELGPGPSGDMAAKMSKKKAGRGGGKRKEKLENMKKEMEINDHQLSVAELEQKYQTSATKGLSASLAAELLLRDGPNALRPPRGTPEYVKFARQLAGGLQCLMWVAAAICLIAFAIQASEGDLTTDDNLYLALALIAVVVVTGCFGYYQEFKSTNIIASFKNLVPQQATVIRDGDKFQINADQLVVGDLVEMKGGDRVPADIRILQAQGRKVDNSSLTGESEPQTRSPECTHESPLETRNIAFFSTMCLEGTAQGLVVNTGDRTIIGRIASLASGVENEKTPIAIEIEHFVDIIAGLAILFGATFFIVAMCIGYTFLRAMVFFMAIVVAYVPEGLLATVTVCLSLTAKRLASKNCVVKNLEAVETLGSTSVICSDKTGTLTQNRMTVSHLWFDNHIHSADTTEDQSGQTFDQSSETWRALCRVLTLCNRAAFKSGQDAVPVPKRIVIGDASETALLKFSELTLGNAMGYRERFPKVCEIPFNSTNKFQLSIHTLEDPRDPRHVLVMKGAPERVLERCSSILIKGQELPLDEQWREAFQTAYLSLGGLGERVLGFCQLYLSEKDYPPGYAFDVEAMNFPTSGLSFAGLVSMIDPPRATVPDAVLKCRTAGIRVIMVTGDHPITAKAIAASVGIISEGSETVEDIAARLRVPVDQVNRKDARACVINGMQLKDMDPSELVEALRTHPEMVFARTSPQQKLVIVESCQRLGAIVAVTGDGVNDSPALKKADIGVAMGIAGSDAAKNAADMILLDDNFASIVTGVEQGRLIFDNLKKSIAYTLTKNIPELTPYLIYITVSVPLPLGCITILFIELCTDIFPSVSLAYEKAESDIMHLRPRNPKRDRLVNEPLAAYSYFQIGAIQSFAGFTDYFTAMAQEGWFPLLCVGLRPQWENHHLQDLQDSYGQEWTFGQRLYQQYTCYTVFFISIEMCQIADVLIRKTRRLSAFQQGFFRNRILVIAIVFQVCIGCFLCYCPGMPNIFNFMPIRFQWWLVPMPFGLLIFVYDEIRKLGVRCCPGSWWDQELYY
T1 sequence (P18434 whole entry partner): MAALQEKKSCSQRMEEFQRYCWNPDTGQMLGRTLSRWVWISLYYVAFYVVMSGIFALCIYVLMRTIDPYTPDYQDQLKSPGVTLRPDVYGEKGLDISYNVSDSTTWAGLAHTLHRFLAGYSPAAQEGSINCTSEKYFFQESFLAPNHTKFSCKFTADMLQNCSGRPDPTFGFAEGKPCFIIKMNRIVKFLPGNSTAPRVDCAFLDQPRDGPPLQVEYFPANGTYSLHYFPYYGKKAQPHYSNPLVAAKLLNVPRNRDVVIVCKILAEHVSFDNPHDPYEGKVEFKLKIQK
Experimental: Inhibitory Action on H^+ /K^+ -ATPase Activity
According to the method of Hongo et al. [The Japanese Journal of Pharmacology, 52, p295, (1990)], a microsome fraction prepared from porcine gastric mucosa was used as a standard enzyme. The standard enzyme (10-20lig protein) and the test compound (0.1-100 μM) dissolved in dimethylsulfoxide was incubated at 37° C. for 30 minutes in the 50 mM Tris-acetate buffer (pH7.4, containing 2 mM magnesium chloride, 5 mM potassium chloride). The enzyme reaction was started by adding adenosinetriphosphate (ATP). Tris at the final concentration of 2 mM, and the reaction was kept at 37° C. for 15 minutes. The reaction was stopped by adding chilled 10% trichloroacetic acid. Inorganic phosphate released during the reaction was calorimetrically determined according to the method of Fiske-Subbarow [The Journal of Biological Chemistry, 66, p375, (1925)]. H^+ /K^+ -ATPase activity was determined by the difference of the enzyme activities under the conditions with or without potassium chloride. The inhibitory activities of test compounds were determined as the 50% inhibitory concentration (IC50 value) from reaction-concentration curve, and the results are shown in Table 3.

[4] = test system: gastric acid secretion; assay: Inhibition of Gastric Acid Secretion Observed Under Acute Fistula Method; type: in vivo, male Wistar rats; conditions: Rattus norvegicus; 30 mg/kg intraduodenally, rats, histamine 10 mg/kg s.c., cumulative 2 h
Experimental: Inhibition of Gastric Acid Secretion Observed Under Acute Fistula Method
Male Wistar rats (6-8 weeks) fasted for 24 hours (water ad libitum) were used. The rats were anesthetized by intraperitoneal administration of 1.25 g/kg of urethane. The abdomen was incised, and acute gastric fistula was connected to the stomach. Two ml of saline was injected into the stomach, and recovered every 20 minutes. The gastric acid secretion was determined by titrating of gastric juice by 150 mM sodium hydroxide up to pH7.0 using an autotitrator. Test compounds (30 mg/kg) suspended in a 0.5% aqueous sodium carboxymethylcellulose (CMC-Na) solution were administered intraduodenally. After 1 hour, gastric acid secretion was stimulated by subcutaneous administration of histamine dihydrochloride dissolved in saline (10 mg/kg). Inhibition (%) of gastric acid secretion was determined by calculating cumulative amount of the acid secretion during two hours after histamine stimulation and then comparing the cumulative amount with that in the control group. In the control group, only 0.5% aqueous CMC-Na solution was administered intraduodenally.

[5] = test system: gastric acid secretion; assay: Inhibition of Gastric Acid Secretion Observed Under Stomach Perfusion Method; type: in vivo, male Sprague Dawrey rats; conditions: Rattus norvegicus, ip, 1 h; rats, histamine i.v. 8 mg/kg/hr, inhibition one hour after administration (1-10 mg/kg, "intrapenetorially"); read-out: ID50 (dose showing 50% inhibition of acid secretion)
Experimental: Inhibition of Gastric Acid Secretion Observed Under Stomach Perfusion Method
Male Sprague Dawrey rats (6-7weeks) fasted for 24 hours were used (water ad libitum). The rats were anesthetized by intraperitoneal administration of 1.25 g/kg of urethane. The abdomen was incised, and gastral cavity was perfused with saline during experiment. The perfusate was titrated by 10 mM sodium hydroxide up to pH5.5 using an autotitrator in accordance with Stat-method. Gastric acid secretion was stimulated by intravenous administration of histamine dihydrochloride (8 mg/kg/hr). Two hours after histamine stimulation, a test compound 1-10 mg/kg) was administered intrapenetorially. The test compound was mixed with small amount of polysorbate-80, and the mixture was suspended in saline. The test compound was evaluated using ID50 (dose showing 50% inhibition of acid secretion) which was calculated based on inhibition of the acid secretion observed one hour after administration of the compound.

C=CCN(CC)c1c(-c2ccccc2C)nc2c3ccccc3ccn12 [Compound 222, 3-(N-Allyl-N-ethylamino)-2-(2-methylphenyl)imidazo[2,1-a]isoquinoline]
inhibition in vivo at 30 mg/kg [1]: 98.8%
Approximate lethal dose [2]: > 2,000 mg/kg
IC50 [3]: 2 µM
inhibition in vivo at 30 mg/kg [4]: 72.6%

C=CCNc1c(-c2ccccc2C)nc2c3ccccc3ccn12 [Compound 221, 3-allylamino-2-(2-methylphenyl)imidazo[2,1-a]isoquinoline]
inhibition in vivo at 30 mg/kg [1]: 73.7%
Approximate lethal dose [2]: > 2,000 mg/kg
inhibition in vivo at 30 mg/kg [4]: 66.7%

CCNc1c(-c2ccccc2C)nc2c3ccccc3ccn12 [Compound 158, 3-Ethylamino-2-(2-methylphenyl)imidazo[2,1-a]isoquinoline]
inhibition in vivo at 30 mg/kg [1]: 92.4%
Approximate lethal dose [2]: > 2,000 mg/kg
ED50 [5]: 8.6 mg/kg
IC50 [3]: 13 µM
inhibition in vivo at 30 mg/kg [4]: 83.6%

CCNc1c(-c2ccccc2C)nc2c3ccccc3c(OC)cn12 [Compound 166, 3-Ethylamino-6-methoxy-2-(2-methylphenyl)imidazo[2,1-a]isoquinoline]
inhibition in vivo at 30 mg/kg [1]: 49.7%
Approximate lethal dose [2]: > 2,000 mg/kg
IC50 [3]: 23 µM
inhibition in vivo at 30 mg/kg [4]: 54.9%

Cc1ccccc1-c1nc2c3ccccc3ccn2c1N [Compound 3, 3-Amino-2-(2-methylphenyl)imidazo[2,1-a]isoquinoline]
inhibition in vivo at 30 mg/kg [1]: 73.5%
Approximate lethal dose [2]: > 2,000 mg/kg
ED50 [5]: 3.4 mg/kg
IC50 [3]: 26 µM
inhibition in vivo at 30 mg/kg [4]: 82.2%
